This assay deals with MDA-MB-468 breast. Kind of assay: growth of human tumour cells (NCI), 48 h.

Results on 43 compounds are retold here after PubChem BioAssay (NCI).

“And” between values parts separate entries of the source, which are not always exact repeats. Equal entries are not always repeated.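 Grown in 96-well plates, cells were treated for 48 hours with each compound at five concentrations. Insufficient inhibition: endpoint recorded as highest concentration tested. GI50: concentration for 50% inhibition of growth. TGI denotes the concentration required for complete inhibition of growth.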

As for `Cc1cc2c(-c3nc4ccccc4[nH]3)c(O)c(O)cc2c(O)c1-c1c(C)cc2c(-c3nc4ccccc4[nH]3)c(O)c(O)cc2c1O`, the GI50 was 20 nM and the TGI worked out at 601 nM.

`CCN(CC)CCn1c(=N)n(CC(O)c2ccc(Cl)c(Cl)c2)c2ccccc21` (centres undefined): the GI50 is 2490 nM and the TGI was determined as 8090 nM.

For the compound `COc1ccc(C(=O)CC2(O)C(=O)Nc3c(Cl)ccc(Cl)c32)cc1` (centres undefined), the GI50 was 536 nM.

As to `CC(C)Oc1cc(OCC(=O)O)cc(C(=O)N(CCC(N)=O)C(=O)Nc2ccc(C(=O)O)cc2OC(C)C)c1`, the GI50 was greater than 100000 nM and the TGI was greater than 100000 nM.

In the case of `CCOc1ccc([C@H]2C(C(=O)c3ccc(Cl)cc3)C3(N[C@@H]2c2ccccc2)C(=O)Nc2ccc(Br)cc23)cc1` (some centres undefined), the GI50 was 16600 nM and the TGI was found to be 41800 nM.

For the compound `COc1ccc(/C=C2/SC(=Nc3c(C)nn(-c4ccccc4)c3N)NC2=O)cc1`, the GI50 is 3240 nM and the TGI was 12400 nM.

Take `O=C(CCCCCCc1nc2ccc(Br)cc2[nH]1)NO`: the GI50 is 248 nM and the TGI amounted to 6370 nM.

`O=C(Nc1ccccc1)c1cc2c(cc1Cl)Sc1nccn1S2(=O)=O`: the GI50 was 5470 nM and the TGI was found to be 26300 nM.

Consider `COc1ccc(CN2CCc3c(Cl)nc(N)nc3C2=O)c(OC)c1`, for which the GI50 was 5850 nM and the TGI was found to be 33100 nM.

With `CCN1CCC(C(=O)Nc2n[nH]c3nnc(-c4cccc(F)c4F)cc23)CC1`, the GI50 was 2320 nM and the TGI is 6780 nM.

Consider `FC(F)(F)c1ccc2nc(-c3nc(-c4ccccc4)n4ccccc34)[nH]c2c1`, for which the GI50 was 2020 nM and the TGI worked out at 7310 nM.

Take `C#Cc1cccc(NC(=O)Nc2ccccc2NC(=O)CCl)c1`: the GI50 was 16000 nM and the TGI was 39300 nM.

As for `N#Cc1c(N)nn(C(=O)c2ccc(NC(=O)c3ccccn3)cc2)c1-c1ccc(Cl)cc1`, the GI50 was 2430 nM and the TGI is 6640 nM.

For the compound `C=C1C(=O)OC(CCCCCCCC)C1C(=O)O` (centres undefined), the GI50 is 5610 nM and the TGI was determined as 16700 nM.

On to `COc1c(O)c2ccccc2c2cc(O)ccc12`, for which the GI50 was 3700 nM and the TGI came out at 15000 nM.

Consider `COc1ccccc1/C=C1\COc2ccc(O)c(O)c2C1=O`, for which the GI50 is 1240 nM and the TGI was 3290 nM.

Turning to `COC12C=C/C(=C(/C(=O)OCc3ccncn3)C(=O)CCCCCCCCC3(OC)C=C/C(=C(/C(=O)OCc4ccncn4)C(=O)CCCCCCCC1)O3)O2`, the GI50 is 239 nM and the TGI amounted to 682 nM.

On to `CCc1cc(C(N)=O)ccc1-n1nc(C(C)C)c2c(-n3cnc(-c4cnn(C)c4)c3)ccnc21`, for which the GI50 is 821 nM and the TGI is greater than 22200 nM.

As for `CCOC(=O)c1cc2c(n1Cc1cccc(OC)c1)-c1oncc1CC2`, the GI50 was 346 nM and the TGI came out at 2490 nM.

For `COc1cc(-c2cc(-c3ccc(N(C)C)cc3)nc(N3CCC(O)CC3)c2C#N)cc(OC)c1OC`, the GI50 is 1110 nM and the TGI was 4080 nM.

In the case of `COc1cc[c]([Hg][Cl])cc1`, the GI50 was 1660 nM and the TGI turned out to be 3350 nM.

Take `CCOC(=O)c1cnc2ccc(Cl)cc2c1NCCCN(C)C`: the GI50 was 16200 nM and the TGI worked out at 45400 nM.

With `C(=N\Nc1ncc(-c2cc3cc4c(cc3o2)OCO4)s1)/c1c[nH]c2ccccc12`, the GI50 is 1010 nM and the TGI is 6050 nM.

For `CC/C(=C(\c1ccccc1)c1ccc(OCCN(C)C)cc1)c1ccccc1`, the GI50 is 1340 nM and 1950 nM and 3920 nM; the TGI was 6480 nM and 5440 nM and 7970 nM.

On to `CC(C)(O)Cn1c(=O)c(Oc2ccc(F)cc2F)cc2cnc(NC3CCOCC3)nc21`, for which the GI50 was greater than 25000 nM and the TGI is greater than 25000 nM.

Take `CC/C=C/[C@@H]1C=C[C@@H]2CCC[C@H]2[C@@H]1CC[C@H](O)[C@H](C)N`: the GI50 was 1240 nM and the TGI came to 2690 nM.

Turning to `CCN1CCN(C(=O)[C@]23CC[C@@H](C)[C@H](C)[C@@H]2C2=CC[C@@H]4[C@@]5(C)C/C(=C/c6cccnc6)C(=O)C(C)(C)[C@@H]5CC[C@@]4(C)[C@]2(C)CC3)CC1`, the GI50 is 1650 nM and the TGI was 3430 nM.

For `COc1ccc([C@H]2c3cc(OC)c(OC)cc3C=C(C=O)C2CO)cc1OC` (some centres undefined), the GI50 is 2550 nM and the TGI came out at 25100 nM.

As for `O=C(Nc1ccc(Cl)c(Cl)c1)Nc1ccc(Cl)c([N+](=O)[O-])c1`, the GI50 is 884 nM and the TGI is 3520 nM.

`COc1cc([C@@H]2c3cc4c(cc3[C@H](OC3OC5COC(c6ccccc6)OC5C(O)C3O)[C@H]3COC(=O)[C@H]23)OCO4)cc(OC)c1OC` (some centres undefined): the GI50 was 472 nM and the TGI stood at 19600 nM.

With `O=C1CCC/C=C\C[C@H]2C=C(Cl)C(=O)/C2=C/C[C@H](CCCCC(F)(F)F)OC(=O)CCC/C=C\C[C@H]2C=C(Cl)C(=O)/C2=C/C[C@H](CCCCC(F)(F)F)O1`, the GI50 was 239 nM and the TGI amounted to 721 nM.

Consider `N#C/C(=C\c1ccc(-c2ccc(F)cc2)o1)C(=O)Nc1ncc(Cc2ccc(Cl)cc2Cl)s1`, for which the GI50 is 2170 nM and the TGI was found to be 5010 nM.

Turning to `O=c1ccc2nc(-c3ccccc3)nn(-c3ccccc3)c-2c1`, the GI50 is 1020 nM and the TGI was 2400 nM.

Turning to `CCN(CC)CCCCCCCCNc1c2ccc(Cl)cc2nc2ccc(OC)cc12`, the GI50 is 1440 nM and the TGI was 2770 nM.

As to `C=C1C(=O)O[C@@H]2[C@@H]3O[C@@](C)(CC/C=C(\C)CCC[C@@H]2C)[C@H](O)C[C@@H]13`, the GI50 is 1150 nM and the TGI is 2800 nM.

In the case of `Cc1ccc(CCC(=O)Nc2ncc(Cc3cc(Cl)ccc3Cl)s2)o1`, the GI50 is 266 nM and the TGI came to 20700 nM.

As for `CCOC(=O)c1c(NC(=O)c2ccc(C(F)(F)F)cc2)sc2c3c(ccc12)OCN(C)C3`, the GI50 is 1560 nM and the TGI was 3180 nM.

Take `Cc1cc(Cl)n2c(nc3ccccc32)c1C#N`: the GI50 is 394 nM and the TGI was determined as 1840 nM.

As for `CCc1nc(N)nc(N)c1-c1ccc(Cl)cc1`, the GI50 was 11400 nM and the TGI is greater than 100000 nM.

For `COc1ccc(C(=O)c2cc3c(N)c(C(=O)Nc4cccc(Cl)c4)sc3nc2C)cc1`, the GI50 is 859 nM and the TGI stood at 2830 nM.

Regarding `CCCCc1ccc2nc(NC(=O)OC)[nH]c2c1`, the GI50 is 107 nM and the TGI was 1600 nM.

On to `CC[C@]1(O)C[C@@H]2CN(Cc3c([nH]c4ccccc34)[C@@](C(=O)OC)(c3cc4c(cc3OC)N(C)[C@H]3[C@@](O)(C(=O)OC)[C@H](OC(C)=O)[C@]5(CC)[C@@H]6C[C@@H]6CN6CC[C@]43[C@@H]65)C2)C1`, for which the GI50 is 17 nM.

Consider `Cc1ncc(C(=O)Nc2ccc(CN3CCN(C)CC3)c(C(F)(F)F)c2)cc1C#Cc1c(N)ncc2ccc(C#N)cc12`, for which the GI50 was 7860 nM and the TGI amounted to 28100 nM.
